Tests used:
Test in all cases: imazapyr whole plant greenhouse test (Example 2)
Format in all cases: in vivo
[1] = tested on: sunflower hybrid H1 (L1 × L2), A205V; conditions: dose 6 (6x, 480 g ai/ha)
Description: (§1) Seeds were sown in Petri dishes and, after germination, plantlets were transplanted to pots of 10 cm of diameter in a potting media consisting of equal parts of vermiculite, soil and sand. Plants were grown in a greenhouse under natural light conditions supplemented with 400 W sodium halide lamps to provide a 16 hr daylength. Day/night temperatures were 25 and 20 ° C., respectively. At the V2-V4 stage (Schneiter & Miller (1981) Crop Sci. 21:901-903) 10 plants of each genotype were randomly assigned to each treatment consisting of eight imazapyr doses (0, 40, 80, 160, 240, 320, 400 and 480 g ai/ha, corresponding to untreated, 0.5×, 1×, 2×, 3×, 4×, 5× and 6×, respectively), and a zero-time biomass determination. Experiment was arranged as a randomized block design with a full factorial (sunflower line×treatment) arrangement of treatments and 10 replications.
(§2) On the day of herbicide application ten plants of each genotype were cut at the cotyledonal node and dried at 60° C. for 48 hrs for zero-time dried weight determination.
(§3) The remaining plants were maintained for 14 days after imazapyr treatment (DAT) and their height, Phytotoxicity Index (PI) and above ground dry biomass were determined Height was determined as the distance between the cotyledonal node and the apex of each plant. Above ground biomass data from each line were converted to biomass accumulation after application by subtracting the appropriate average zero- time biomass from each sample. Dry biomass data were converted to percentages of the untreated control plants within each line to allow direct comparisons between groups.

[2] = tested on: sunflower hybrid H2 (L3 × L4), A122T
Description: as §1, §2, §3

[3] = tested on: sunflower hybrid H4 (L1 × L4), A205V + A122T
Description: as §1, §2, §3

sunflower line L1, A205V = tested on: sunflower line L1, A205V
Description: as §1, §2, §3

`CC(C)C1(C)N=C(c2ncccc2C(=O)O)NC1=O` (centres unmarked) [imazapyr] was tested, and the “biomass accumulation 14 days after treatment, % of untreated” value [1] was 33.9%, the “plant height 14 days after treatment, % of untreated” value [1] was 27.1% and the “Phytotoxicity Index (0-9) 14 days after treatment” value (from here on “Phytotoxicity Index (0-9) 14 days”) ([2]; dose 0.5 (0.5x, 40 g ai/ha)) was 0.5. The “biomass accumulation 14 days after treatment, % of untreated” value ([2]; dose 0.5 (0.5x, 40 g ai/ha)) was 100%, the “plant height 14 days after treatment, % of untreated” value ([2]; dose 0.5 (0.5x, 40 g ai/ha)) was 99.2% and the “Phytotoxicity Index (0-9) 14 days” value ([2]; dose 1 (1x, 80 g ai/ha)) was 0.5. The “biomass accumulation 14 days after treatment, % of untreated” value ([2]; dose 1 (1x, 80 g ai/ha)) was 97.2%, the “plant height 14 days after treatment, % of untreated” value ([2]; dose 1 (1x, 80 g ai/ha)) was 98.6% and the “Phytotoxicity Index (0-9) 14 days” value ([2]; dose 2 (2x, 160 g ai/ha)) was 0.5. The “biomass accumulation 14 days after treatment, % of untreated” value ([2]; dose 2 (2x, 160 g ai/ha)) was 97.9%, the “plant height 14 days after treatment, % of untreated” value ([2]; dose 2 (2x, 160 g ai/ha)) was 100.3% and the “Phytotoxicity Index (0-9) 14 days” value ([2]; dose 3 (3x, 240 g ai/ha)) was 0.5. The “biomass accumulation 14 days after treatment, % of untreated” value ([2]; dose 3 (3x, 240 g ai/ha)) was 98.2%, the “plant height 14 days after treatment, % of untreated” value ([2]; dose 3 (3x, 240 g ai/ha)) was 99.6% and the “Phytotoxicity Index (0-9) 14 days” value ([2]; dose 4 (4x, 320 g ai/ha)) was 0.5. For the same compound, the “biomass accumulation 14 days after treatment, % of untreated” value ([2]; dose 4 (4x, 320 g ai/ha)) was 97.8%, the “plant height 14 days after treatment, % of untreated” value ([2]; dose 4 (4x, 320 g ai/ha)) was 101.0% and the “Phytotoxicity Index (0-9) 14 days” value ([2]; dose 5 (5x, 400 g ai/ha)) was 0.5. For the same compound, the “biomass accumulation 14 days after treatment, % of untreated” value ([2]; dose 5 (5x, 400 g ai/ha)) was 85.1%, the “plant height 14 days after treatment, % of untreated” value ([2]; dose 5 (5x, 400 g ai/ha)) was 87.0% and the “Phytotoxicity Index (0-9) 14 days” value ([2]; dose 6 (6x, 480 g ai/ha)) was 0.5. For the same compound, the “biomass accumulation 14 days after treatment, % of untreated” value ([2]; dose 6 (6x, 480 g ai/ha)) was 79.5%, the “plant height 14 days after treatment, % of untreated” value ([2]; dose 6 (6x, 480 g ai/ha)) was 79.6% and the “Phytotoxicity Index (0-9) 14 days” value ([3]; dose 0.5 (0.5x, 40 g ai/ha)) was 0.0. The “biomass accumulation 14 days after treatment, % of untreated” value ([3]; dose 0.5 (0.5x, 40 g ai/ha)) was 99.479%, the “plant height 14 days after treatment, % of untreated” value ([3]; dose 0.5 (0.5x, 40 g ai/ha)) was 100.0% and the “Phytotoxicity Index (0-9) 14 days” value ([3]; dose 1 (1x, 80 g ai/ha)) was 0.0. For the same compound, the “biomass accumulation 14 days after treatment, % of untreated” value ([3]; dose 1 (1x, 80 g ai/ha)) was 97.8%, the “plant height 14 days after treatment, % of untreated” value ([3]; dose 1 (1x, 80 g ai/ha)) was 99.6% and the “Phytotoxicity Index (0-9) 14 days” value ([3]; dose 2 (2x, 160 g ai/ha)) was 0.0. For the same compound, the “biomass accumulation 14 days after treatment, % of untreated” value ([3]; dose 2 (2x, 160 g ai/ha)) was 92.2%, the “plant height 14 days after treatment, % of untreated” value ([3]; dose 2 (2x, 160 g ai/ha)) was 100.0% and the “Phytotoxicity Index (0-9) 14 days” value ([3]; dose 3 (3x, 240 g ai/ha)) was 0.0. The “biomass accumulation 14 days after treatment, % of untreated” value ([3]; dose 3 (3x, 240 g ai/ha)) was 88.2%, the “plant height 14 days after treatment, % of untreated” value ([3]; dose 3 (3x, 240 g ai/ha)) was 100.0% and the “Phytotoxicity Index (0-9) 14 days” value ([3]; dose 4 (4x, 320 g ai/ha)) was 0.0. The “biomass accumulation 14 days after treatment, % of untreated” value ([3]; dose 4 (4x, 320 g ai/ha)) was 85.0%, the “plant height 14 days after treatment, % of untreated” value ([3]; dose 4 (4x, 320 g ai/ha)) was 95.0% and the “Phytotoxicity Index (0-9) 14 days” value ([3]; dose 5 (5x, 400 g ai/ha)) was 0.2. For the same compound, the “biomass accumulation 14 days after treatment, % of untreated” value ([3]; dose 5 (5x, 400 g ai/ha)) was 78.7%, the “plant height 14 days after treatment, % of untreated” value ([3]; dose 5 (5x, 400 g ai/ha)) was 87.2% and the “Phytotoxicity Index (0-9) 14 days” value ([3]; dose 6 (6x, 480 g ai/ha)) was 0.0. For the same compound, the “biomass accumulation 14 days after treatment, % of untreated” value ([3]; dose 6 (6x, 480 g ai/ha)) was 71.8%, the “plant height 14 days after treatment, % of untreated” value ([3]; dose 6 (6x, 480 g ai/ha)) was 65.5% and the “Phytotoxicity Index (0-9) 14 days” value (sunflower line L1, A205V; dose 0.5 (0.5x, 40 g ai/ha)) was 0. For the same compound, the “biomass accumulation 14 days after treatment, % of untreated” value (sunflower line L1, A205V; dose 0.5 (0.5x, 40 g ai/ha)) was 91.7%, the “plant height 14 days after treatment, % of untreated” value (sunflower line L1, A205V; dose 0.5 (0.5x, 40 g ai/ha)) was 100.0% and the “Phytotoxicity Index (0-9) 14 days” value (sunflower line L1, A205V; dose 1 (1x, 80 g ai/ha)) was 0. For the same compound, the “biomass accumulation 14 days after treatment, % of untreated” value (sunflower line L1, A205V; dose 1 (1x, 80 g ai/ha)) was 81.7%, the “plant height 14 days after treatment, % of untreated” value (sunflower line L1, A205V; dose 1 (1x, 80 g ai/ha)) was 100.0% and the “Phytotoxicity Index (0-9) 14 days” value (sunflower line L1, A205V; dose 2 (2x, 160 g ai/ha)) was 1.6. The “biomass accumulation 14 days after treatment, % of untreated” value (sunflower line L1, A205V; dose 2 (2x, 160 g ai/ha)) was 54.7%, the “plant height 14 days after treatment, % of untreated” value (sunflower line L1, A205V; dose 2 (2x, 160 g ai/ha)) was 78.9% and the “Phytotoxicity Index (0-9) 14 days” value (sunflower line L1, A205V; dose 3 (3x, 240 g ai/ha)) was 5.1. The “biomass accumulation 14 days after treatment, % of untreated” value (sunflower line L1, A205V; dose 3 (3x, 240 g ai/ha)) was 35.7%, the “plant height 14 days after treatment, % of untreated” value (sunflower line L1, A205V; dose 3 (3x, 240 g ai/ha)) was 50.0% and the “Phytotoxicity Index (0-9) 14 days” value (sunflower line L1, A205V; dose 4 (4x, 320 g ai/ha)) was 8.4. For the same compound, the “biomass accumulation 14 days after treatment, % of untreated” value (sunflower line L1, A205V; dose 4 (4x, 320 g ai/ha)) was 25.3%, the “plant height 14 days after treatment, % of untreated” value (sunflower line L1, A205V; dose 4 (4x, 320 g ai/ha)) was 38.1% and the “Phytotoxicity Index (0-9) 14 days” value (sunflower line L1, A205V; dose 5 (5x, 400 g ai/ha)) was 8.9. The “biomass accumulation 14 days after treatment, % of untreated” value (sunflower line L1, A205V; dose 5 (5x, 400 g ai/ha)) was 19.8%, the “plant height 14 days after treatment, % of untreated” value (sunflower line L1, A205V; dose 5 (5x, 400 g ai/ha)) was 31.8% and the “Phytotoxicity Index (0-9) 14 days” value (sunflower line L1, A205V; dose 6 (6x, 480 g ai/ha)) was 8.9. The “biomass accumulation 14 days after treatment, % of untreated” value (sunflower line L1, A205V; dose 6 (6x, 480 g ai/ha)) was 19.5% and the “plant height 14 days after treatment, % of untreated” value (sunflower line L1, A205V; dose 6 (6x, 480 g ai/ha)) was 34.7%.
